The source of these data is ChEMBL document CHEMBL3044847, “Evaluation of systemic acquired resistance inducers for control of Phytophthora capsici on squash” (Crop Prot, 2009).

For series [1], the system named is Phytophthora capsici. As to the kind of experiment: Insecticidal activity against 10^3 spores/ml of Phytophthora capsici in Cucurbita pepo assessed as reduction of disease severity under greenhouse condition at 25 to 50 ug/ml applied as foliar spray after 1 week. The series is classed as functional, organism-based.
Series [2] concerns Phytophthora capsici. Put plainly: Insecticidal activity against Phytophthora capsici assessed as inhibition of mycelial growth by measuring perpendicular colony diameter at 25 to 2000 ug/ml after 8 days. The series is classed as functional, organism-based.
For series [3], the system named is Phytophthora capsici. Put plainly: Insecticidal activity against Phytophthora capsici in Cucurbita pepo assessed as reduction of disease severity under greenhouse condition at 25 to 50 ug/ml after 1 week. The series is classed as functional, organism-based.
For series [4], the system named is Cucurbita pepo. Put plainly: Phytotoxicity in Cucurbita pepo (pumpkin) assessed as effect on host weight and height under greenhouse condition at 50 ug/ml. The series is classed as organism-based. The settings on record: in vivo.
For series [5], the system named is Phytophthora capsici. Put plainly: Insecticidal activity against Phytophthora capsici in Cucurbita pepo assessed as effect on host weight and height under greenhouse condition at 25 to 50 ug/ml. The series is classed as functional, organism-based.
In series [6] the test system is Phytophthora capsici. Put plainly: Insecticidal activity against Phytophthora capsici assessed as inhibition of sporangium production at 500 to 1000 ug/ml after 4 days. The series is classed as functional, organism-based.
Series [7] deals with Phytophthora capsici. Put plainly: Insecticidal activity against 10^4 spores/ml of Phytophthora capsici in Cucurbita pepo assessed as reduction of disease severity under greenhouse condition at 25 to 50 ug/ml applied as foliar spray after 1 week. The series is classed as functional, organism-based.
The test system of series [8] is Phytophthora capsici. Put plainly: Insecticidal activity against Phytophthora capsici assessed as inhibition of zoospore germination at 25 to 1000 ug/ml after 4 days with 16 hr photoperiod. The series is classed as functional, organism-based.
Series [9] deals with Cucurbita pepo. As to the kind of experiment: Toxicity in Cucurbita pepo (pumpkin) assessed as effect on host weight and height under greenhouse condition at 25 to 50 ug/ml. Conditions: in vivo. The series is classed as organism-based.
Series [10] deals with Phytophthora capsici. Put plainly: Insecticidal activity against Phytophthora capsici assessed as inhibition of sporangium production at 25 to 1000 ug/ml after 4 days. The series is classed as functional, organism-based.
Series [11] deals with Phytophthora capsici. Put plainly: Insecticidal activity against Phytophthora capsici assessed as inhibition of zoospore germination at 500 to 1000 ug/ml after 4 days with 16 hr photoperiod. The series is classed as functional, organism-based.
For series [12], the system named is Phytophthora capsici. Put plainly: Insecticidal activity against Phytophthora capsici assessed as inhibition of sporangium production after 4 days. The series is classed as functional, organism-based.

Calls of active or inactive are those of the source. No cut-off for these calls is given here.

Consider `CSC(=O)c1cccc2nnsc12` [ACIBENZOLAR-S-METHYL], for which the result in the series on Phytophthora capsici [1], with Phytophthora capsici [3], in the series with Phytophthora capsici [5] and in the series with Phytophthora capsici [7] was Active. The inhibition entry in the series on Phytophthora capsici [2] and with Phytophthora capsici [8] was “inactive” each time. Besides, in the series on Cucurbita pepo [4], the Activity result is “Toxic”. Besides, in the series on Phytophthora capsici [6], the inhibition result was “Active”.

On to `CC(N)CC(=O)O` (racemic), for which the result in the series on Phytophthora capsici [1], with Phytophthora capsici [3] and in the series with Phytophthora capsici [5] was Active. Besides, the inhibition entry in the series with Phytophthora capsici [2], in the series with Phytophthora capsici [10] and with Phytophthora capsici [8] was “inactive” throughout. The Activity entry in the series with Cucurbita pepo [4] and in the series on Cucurbita pepo [9] was “Non-toxic” in each case.

Turning to `O=C(O)c1ccccc1O` [SALICYLIC ACID], the inhibition result in the series with Phytophthora capsici [11] was “Active”. Besides, in the series with Phytophthora capsici [5], the outcome was Active. Besides, in the series on Cucurbita pepo [9], the Activity result is reported as “Non-toxic”.

Turning to `O=C(O)c1cc(Cl)nc(Cl)c1` [2,6-DICHLOROISONICOTINIC ACID], the outcome in the series with Phytophthora capsici [1], with Phytophthora capsici [3], in the series on Phytophthora capsici [5] and in the series with Phytophthora capsici [7] was Active. Besides, the inhibition result with Phytophthora capsici [11] and in the series with Phytophthora capsici [2] was “Active” each time. Moreover, the Activity entry in the series on Cucurbita pepo [4] was “Toxic”. In the series on Phytophthora capsici [12], the inhibition result was “Dose-dependent effect”.
